# Values joined by “and” are separate entries in the source; they are usually repeats but may differ in a detail not shown here. Identical values can stand only once. “Also recorded” adds a separate entry of the source. Marks after values point to notes of the source that are not given here.
# Experiments:
# [1] = test system: rodent models of seizure, anxiety, depression and EEG biomarker; experiment: Preclinical models of depression, anxiety, seizure and EEG (overall effective dose); assay type: in vivo
# human subjects [2] = experiment: Phase 1 study of safety, tolerability and pharmacokinetics in healthy volunteers (Example 1); assay type: in vivo; conditions: Phase 1 study participants
# Description: The study is a first in-human study of ATN-10155 is designed to assess the safety, tolerability, and pharmacokinetics of ATN-10155 following administration of two phases: a single ascending dose phase and multiple ascending dose phase. The study is a randomized, double-blind study with participants in each cohort receiving active drug or matching placebo. The study evaluates the safety, tolerability, and pharmacokinetics of ATN-10155 following the single and multiple dose phases in healthy volunteers. […]
# Single Ascending Dose—the Single Ascending Dose portion comprises five or more cohorts with eight participants in each cohort, 6 actively receiving ATN-10155 and 2 receiving a placebo. […] Sentinel dosing is not employed once the maximum tolerated dose is determined or if an intermediate cohort is added that that is lower than the dose of the previous cohort. […]
# Safety and tolerability—A physical and neurological exam is done as part of the eligibility evaluation at screening. […] Systolic blood pressure, diastolic blood pressure, pulse, and peripheral arterial oxygen saturation (pulse oximetry) is recorded prior to every PK blood sample (including pre-dose) in the single ascending dose portion. […] If a post-menopausal female, follicle stimulating hormone levels is measured at screening. […]
# human subjects [3] = experiment: 60 mg once daily for seven days, adverse events in humans (MAD); assay type: in vivo; conditions: for AE Sleepiness (Nervous system disorders): listed three times in the table; for AE Headache (Nervous system disorders): listed twice in the table
# Method: The effects of CV-10155 in relation to administration at different times of the day and states of feeding were analyzed in humans. Subjects were given 60 mg CV-10155 orally once per day for seven consecutive days, and plasma concentrations were measured at various time points. Doses were administered either in the morning to fasted subjects or in the evening to fed subjects.
# Adverse events observed following administration of a single dose of CV-10155 in the evening in a fed state are summarized on Table 6.
# A comparison of adverse events observed following administration to fasted subjects in the morning and to fed subjects in the evening is provided in Table 7.
# The tolerability of the neurosteroids CV-10155, Sage-217, and Praxis-114 in human subjects were compared. The results from subjects that received 45 mg Praxis-114 in the evening, 60 mg Praxis-114 in the evening, 80 mg Praxis-114 in the evening, or 60 mg CV-10155 in the evening are provided in Table 8, and the results form subjects that received 30 mg Sage-217 or 20 mg Sage-217 are provided in Table 9.
# [4] = test system: all 18 GABAA receptor channels; experiment: Activity at GABAA receptor channels; conditions: previously shown
# Description: The compound of Formula (I) is believed to have binding affinity at the GABA-gated Cl-channel, the kappa opioid receptor, the 5-HT2A receptor, and the androgen receptor. The compound of Formula (I) has previously shown activity at all 18 GABAA receptor channels and the kappa opioid receptor. The compound of Formula (I) had previously shown no activity at the 5-HT2A receptor. Activity at the androgen receptor is has not yet been well studied.
# rodent models = experiment: Tolerability in rodent models; assay type: in vivo; conditions: at efficacious doses
# Description: The compound of Formula (I) is also believed to show antiepileptic activity in maximal electroshock and pentylenetetrazol seizure models, antidepressant properties in the forced swim test, and anxiolytic properties in the elevated plus maze test.
# [5] = 60 mg, evening, fed state, N = 9
# [6] = 60 mg, morning, fasted state, N = 9
# [7] = HV, 60 mg evening dosing, n = 12
# [8] = human, 60 mg, evening, fed state, one line per subject and event
structure (smiles),measurement,setting,value
"C[C@@]1(O)CC[C@@]2(C)[C@@H](CC[C@@H]3[C@@H]2CC[C@]2(C)[C@@H](C(=O)Cn4cc(C#N)cn4)CC[C@@H]32)C1 [CV-10155, 1-[2-[(3R,5S,8R,9S,10S,13S,14S,17S)-3-hydroxy-3,10,13-trimethyl-1,2,4,5,6,7,8,9,11,12,14,15,16,17-tetradecahydrocyclopenta[a]phenanthren-17-yl]-2-oxoethyl]pyrazole-4-carbonitrile]",dose from which robust efficacy was observed,[1]; in most models,≥ 3 mg/kg
same,minimal effective dose (MED),"[1]; preclinical models of depression, anxiety, seizure",1 mg/kg
same,serious adverse events,human subjects [2],minimal to no serious adverse events
same,severe adverse events,human subjects [2],minimal to no severe adverse events
same,AE Back pain (Musculoskeletal and connective tissue disorders),human subjects [3]; [5],1 #
same,AE Bloating (Gastrointestinal disorders),human subjects [3]; [5],1 #
same,AE Dizziness (Nervous system disorders),human subjects [3]; [5],1 #
same,AE Sleepiness (Nervous system disorders),human subjects [3]; [5],1 #
same,AE Headache (Nervous system disorders),human subjects [3]; [5],2 #
same,AE Dizziness (Nervous system disorders),human subjects [3]; [6],1 #
same,AE Feeling sleepy (Nervous system disorders),human subjects [3]; [6],1 #
same,AE Feeling tired (General disorders and administration site conditions),human subjects [3]; [6],2 #
same,AE Tiredness (General disorders and administration site conditions),human subjects [3]; [6],3 #
same,AE Sleepiness (Nervous system disorders),human subjects [3]; [6],9 #
same,AE Headache (Nervous system disorders),human subjects [3]; [6],2 #
same,"Dizziness, AEs % of subjects",human subjects [3]; [7],16.7%
same,"Headache, AEs % of subjects",human subjects [3]; [7],8.3%
same,"Somnolence, AEs % of subjects",human subjects [3]; [7],8.3%
same,AE (per subject),human subjects [3]; [8],Dizziness; also recorded: Headache; also recorded: Somnolence; also recorded: Back pain; also recorded: Abdominal
same,AE duration,human subjects [3]; [8],20.50 h and 13.00 h and 14.50 h and 10.62 h and 39.25 h and 13.25 h and 06.50 h
same,AE onset from dose,human subjects [3]; [8],pre-dose
same,AE severity,human subjects [3]; [8],Mild (6×) and Moderate
same,adverse effects that interfere with sleeping,"human subjects [3]; human, oral administration in the evening to fed subjects",does not produce adverse effects that interfere with sleeping
same,activity at all 18 GABAA receptor channels,[4],activity
same,tolerability in rodent models,rodent models,well tolerated

# Reference: US20230372364A1, “METHOD OF TREATING GABA MEDIATED DISORDERS” (Eliem Therapeutics (UK) Ltd, priority 2020, published 2023)
